Laboratory results reported in patent US20230072854A1, “PARAXANTHINE-BASED BIOACTIVE COMPOSITION AND METHOD OF USE THEREOF” (Ingenious Ingredients, LP, priority 2020, published 2023).
Entries after “also recorded” stand apart in the source; their conditions may differ.

Legend:
subjects = assay: Paraxanthine pre-workout, subject reports; format: in vivo, human; settings: single subject, own words
Protocol: Health subjects were administered paraxanthine and asked to report their experience. Subjects reported the following.

volunteers [1] = assay: Go/No-Go test, double blind crossover vs placebo; format: in vivo, human; settings: 200 mg; for Response Time Average: in ms (unit assumed)
Text: (§1) In a double blind, randomized, crossover, and repeated measures manner, 13 volunteers (10 male, 3 female, average age 24±5 years, average body weight 72.91±19.30 kg, average height 169.96±11.84 cm, average BMI 24.80±3.71 kg/m^2) participated in this study. Participants limited ingestion of caffeine and other stimulants to normal use for 48-hours, fasted for 8-hours and reported to the lab and completed 4 different cognitive function tests to assess short-term attention and inhibitory control (Go-No Go Test), sustained attention (Vigilance Task Test), working memory (Sternberg Task Test) and cognitive flexibility (Berg-Washington Card Sorting Test). Once completed, the participants ingested either a placebo or 200 mg of paraxanthine (WGI, TX, USA) with 8 ounces of water. Participants repeated cognitive function tests 1, 2, 3, 4, 5, and 6 hours after ingestion of the supplement. After one-week participants repeated the experiment while consuming the other treatment.
(§2) Data were analyzed by a General Linear Model multivariate and univariate analyses with repeated measures using body weight as a covariate. Data are expressed as means±standard deviations for the placebo (PLA) and Paraxanthine (PrX). Greenhouse-Geisser univariate p-levels are listed for time (T), weight×time (W×T) and group×time (G×T) interactions effects. Pairwise comparison is indicated by the following superscripts: †=[…] difference from baseline value; *=[…] difference from baseline; a=[…] difference between groups; b=[…] difference between groups. Eta2 vaules of […] are considered small, […] medium, and >0.14 are considered large.
A test of sustained attention and response control (i.e., attention/inhibition). Lower response times represents better ability to pay attention and inhibitory control.

volunteers [2] = assay: Psychomotor vigilance task test, double blind crossover vs placebo; format: in vivo, human; settings: 200 mg
Text: as §1, §2
The psychomotor vigilance task test is a sustained attention, reaction timed task that measures the speed with which participants respond to a visual stimulus. Lower Reaction time, especially maintained throughout this many tests represents better ability to sustain attention.

Toxicity, LD50 = settings: in vivo

Cn1c(=O)[nH]c2ncn(C)c2c1=O [paraxanthine, 1,7-dimethylxanthine]
experience reported by subject (subjects): happier, better, more energy and focused; also recorded: phenomenal; also recorded: clean energy, but not stressed or stimmed; also recorded: it works
Round 1 Condition P mean response time (FIG. 6) (volunteers [1]): no significant differences over time or between treatments
percentage of correct answers, in words (volunteers [1]): maintained percentage of correct answers
Correct Response Mean Accuracy (%) (volunteers [1]; Mean (SEM) over all hours): 92.5%
Round 1: Condition P Mean - Response Time (Millisecond) (volunteers [1]; Mean (SEM) over all hours): 394.55 ± 18.07 Millisecond
Round 2: Condition P Mean - Response Time (Millisecond) (volunteers [1]; Mean (SEM) over all hours): 356.55 ± 18.00 Millisecond
Round 2: Condition R Mean - Response Time (Millisecond) (volunteers [1]; Mean (SEM) over all hours): 396.32 ± 20.27 Millisecond
Response Time Average (volunteers [1]; Mean (SEM) over all hours): 374.94 ± 17.45
Correct Response Mean Accuracy (%) (volunteers [1]; Mean (SEM) over all hours, listed as PX): 92.5 ± 1.3%
response times to correctly respond compared to PLA (volunteers [1]; acute): faster response times
Correct Response Mean Accuracy (%) (volunteers [1]; hour 0 (before ingestion)): 93.0 ± 2.9%
Round 1: Condition P Mean - Response Time (Millisecond) (volunteers [1]; hour 0 (before ingestion)): 392.29 ± 44.29 Millisecond
Round 1: Condition R Mean - Response Time (Millisecond) (volunteers [1]; hour 0 (before ingestion)): 344.30 ± 70.08 Millisecond
Round 2: Condition P Mean - Response Time (Millisecond) (volunteers [1]; hour 0 (before ingestion)): 345.19 ± 37.11 Millisecond
Round 2: Condition R Mean - Response Time (Millisecond) (volunteers [1]; hour 0 (before ingestion)): 401.46 ± 52.36 Millisecond
Response Time Average (volunteers [1]; hour 0 (before ingestion)): 373.88 ± 43.64
Correct Response Mean Accuracy (%) (volunteers [1]; hour 1 after ingestion): 93.7 ± 2.3%
Round 1: Condition P Mean - Response Time (Millisecond) (volunteers [1]; hour 1 after ingestion): 387.51 ± 38.34 Millisecond
Round 1: Condition R Mean - Response Time (Millisecond) (volunteers [1]; hour 1 after ingestion): 336.24 ± 73.85 Millisecond
Round 2: Condition P Mean - Response Time (Millisecond) (volunteers [1]; hour 1 after ingestion): 346.39 ± 47.07 Millisecond
Round 2: Condition R Mean - Response Time (Millisecond) (volunteers [1]; hour 1 after ingestion): 390.30 ± 41.57 Millisecond
Response Time Average (volunteers [1]; hour 1 after ingestion): 366.68 ± 36.59
Correct Response Mean Accuracy (%) (volunteers [1]; hour 2 after ingestion): 92.9 ± 3.6%
Round 1: Condition P Mean - Response Time (Millisecond) (volunteers [1]; hour 2 after ingestion): 392.71 ± 38.09 Millisecond
Round 1: Condition R Mean - Response Time (Millisecond) (volunteers [1]; hour 2 after ingestion): 347.17 ± 59.16 Millisecond
Round 2: Condition P Mean - Response Time (Millisecond) (volunteers [1]; hour 2 after ingestion): 352.72 ± 46.18 Millisecond
Round 2: Condition R Mean - Response Time (Millisecond) (volunteers [1]; hour 2 after ingestion): 389.31 ± 39.82 Millisecond
Response Time Average (volunteers [1]; hour 2 after ingestion): 371.09 ± 30.25
Correct Response Mean Accuracy (%) (volunteers [1]; hour 3 after ingestion): 91.7%
Round 1: Condition P Mean - Response Time (Millisecond) (volunteers [1]; hour 3 after ingestion): 402.18 Millisecond
Round 1: Condition R Mean - Response Time (Millisecond) (volunteers [1]; hour 3 after ingestion): 360.11 Millisecond
Round 2: Condition P Mean - Response Time (Millisecond) (volunteers [1]; hour 3 after ingestion): 372.09 Millisecond
Round 2: Condition R Mean - Response Time (Millisecond) (volunteers [1]; hour 3 after ingestion): 401.47 Millisecond
Response Time Average (volunteers [1]; hour 3 after ingestion): 384.07
Correct Response Mean Accuracy (%) (volunteers [1]; hour 4 after ingestion): 91.3%
Round 1: Condition P Mean - Response Time (Millisecond) (volunteers [1]; hour 4 after ingestion): 387.65 Millisecond
Round 1: Condition R Mean - Response Time (Millisecond) (volunteers [1]; hour 4 after ingestion): 350.94 Millisecond
Round 2: Condition P Mean - Response Time (Millisecond) (volunteers [1]; hour 4 after ingestion): 362.02 Millisecond
Round 2: Condition R Mean - Response Time (Millisecond) (volunteers [1]; hour 4 after ingestion): 399.45 Millisecond
Response Time Average (volunteers [1]; hour 4 after ingestion): 375.03
Correct Response Mean Accuracy (%) (volunteers [1]; hour 5 after ingestion): 93.1%
Round 1: Condition P Mean - Response Time (Millisecond) (volunteers [1]; hour 5 after ingestion): 406.70 Millisecond
Round 1: Condition R Mean - Response Time (Millisecond) (volunteers [1]; hour 5 after ingestion): 365.08 Millisecond
Round 2: Condition P Mean - Response Time (Millisecond) (volunteers [1]; hour 5 after ingestion): 359.18 Millisecond
Round 2: Condition R Mean - Response Time (Millisecond) (volunteers [1]; hour 5 after ingestion): 405.58 Millisecond
Response Time Average (volunteers [1]; hour 5 after ingestion): 383.60
Correct Response Mean Accuracy (%) (volunteers [1]; hour 6 after ingestion): 91.6 ± 4.4%
Round 1: Condition P Mean - Response Time (Millisecond) (volunteers [1]; hour 6 after ingestion): 393.51 ± 53.02 Millisecond
Round 1: Condition R Mean - Response Time (Millisecond) (volunteers [1]; hour 6 after ingestion): 352.14 ± 56.48 Millisecond
Round 2: Condition P Mean - Response Time (Millisecond) (volunteers [1]; hour 6 after ingestion): 357.05 ± 99.19 Millisecond
Round 2: Condition R Mean - Response Time (Millisecond) (volunteers [1]; hour 6 after ingestion): 387.41 ± 53.47 Millisecond
Response Time Average (volunteers [1]; hour 6 after ingestion): 371.27 ± 53.76
average response time (FIG. 10) (volunteers [1]; round 1+round 2): maintained mean response time over time
Round 1 Condition R mean response time (FIG. 7) (volunteers [1]; round 1, vs PLA): better maintained mean response time over time compared to PLA
Round 2 Condition P mean response time (FIG. 8) (volunteers [1]; round 2, vs PLA): better maintained mean response time over time compared to PLA
Round 2 Condition R mean response time (FIG. 9) (volunteers [1]; round 2, vs PLA): non-significantly better maintained mean response time over time compared to PLA
change of mean response times (volunteers [1]; vs baseline): −0.3%
decrease of correct responses in comparison to baseline (volunteers [1]; vs baseline): 0.5%
Mean Correct Responses higher compared to placebo (volunteers [1]; vs placebo): 1.1%
Trial #2 reaction time (FIG. 11) (volunteers [2]): maintained reaction time
Trial #10 reaction time (FIG. 12) (volunteers [2]): no significant time or between treatment differences
effect on average reaction times in the vigilance task test (volunteers [2]): no effect
Reaction Time (milliseconds) Average (volunteers [2]; Mean (SEM) over all hours): 2,550 milliseconds
Reaction Time (milliseconds) Trial #2 (volunteers [2]; Mean (SEM) over all hours): 2,659 milliseconds
Reaction Time (milliseconds) Trial #10 (volunteers [2]; Mean (SEM) over all hours): 2,639 milliseconds
Reaction Time (milliseconds) Trial #20 (volunteers [2]; Mean (SEM) over all hours): 2,590 milliseconds
Reaction Time (milliseconds) Average (volunteers [2]; hour 0 (before ingestion)): 2,546 milliseconds
Reaction Time (milliseconds) Trial #2 (volunteers [2]; hour 0 (before ingestion)): 2,601 milliseconds
Reaction Time (milliseconds) Trial #10 (volunteers [2]; hour 0 (before ingestion)): 2,607 milliseconds
Reaction Time (milliseconds) Trial #20 (volunteers [2]; hour 0 (before ingestion)): 2,680 milliseconds
Reaction Time (milliseconds) Average (volunteers [2]; hour 1 after ingestion): 2,552 milliseconds
Reaction Time (milliseconds) Trial #2 (volunteers [2]; hour 1 after ingestion): 2,602 milliseconds
Reaction Time (milliseconds) Trial #10 (volunteers [2]; hour 1 after ingestion): 2,418 milliseconds
Reaction Time (milliseconds) Trial #20 (volunteers [2]; hour 1 after ingestion): 2,458 milliseconds
Reaction Time (milliseconds) Average (volunteers [2]; hour 2 after ingestion): 2,508 milliseconds
Reaction Time (milliseconds) Trial #2 (volunteers [2]; hour 2 after ingestion): 3,005 milliseconds
Reaction Time (milliseconds) Trial #10 (volunteers [2]; hour 2 after ingestion): 2,651 milliseconds
Reaction Time (milliseconds) Trial #20 (volunteers [2]; hour 2 after ingestion): 2,220 milliseconds
Reaction Time (milliseconds) Average (volunteers [2]; hour 3 after ingestion): 2,559 milliseconds
Reaction Time (milliseconds) Trial #2 (volunteers [2]; hour 3 after ingestion): 2,591 milliseconds
Reaction Time (milliseconds) Trial #10 (volunteers [2]; hour 3 after ingestion): 2,788 milliseconds
Reaction Time (milliseconds) Trial #20 (volunteers [2]; hour 3 after ingestion): 2,445 milliseconds
Reaction Time (milliseconds) Average (volunteers [2]; hour 4 after ingestion): 2,538 milliseconds
Reaction Time (milliseconds) Trial #2 (volunteers [2]; hour 4 after ingestion): 3,005 milliseconds
Reaction Time (milliseconds) Trial #10 (volunteers [2]; hour 4 after ingestion): 2,412 milliseconds
Reaction Time (milliseconds) Trial #20 (volunteers [2]; hour 4 after ingestion): 2,792 milliseconds
Reaction Time (milliseconds) Average (volunteers [2]; hour 5 after ingestion): 2,570 milliseconds
Reaction Time (milliseconds) Trial #2 (volunteers [2]; hour 5 after ingestion): 2,441 milliseconds
Reaction Time (milliseconds) Trial #10 (volunteers [2]; hour 5 after ingestion): 2,783 milliseconds
Reaction Time (milliseconds) Trial #20 (volunteers [2]; hour 5 after ingestion): 2,544 milliseconds
Reaction Time (milliseconds) Average (volunteers [2]; hour 6 after ingestion): 2,577 milliseconds
Reaction Time (milliseconds) Trial #2 (volunteers [2]; hour 6 after ingestion): 2,360 milliseconds
Reaction Time (milliseconds) Trial #10 (volunteers [2]; hour 6 after ingestion): 2,813 milliseconds
Reaction Time (milliseconds) Trial #20 (volunteers [2]; hour 6 after ingestion): 3,005 milliseconds
LD50 (Toxicity, LD50): 1600 mg/kg
